Experimental data from ChEMBL document CHEMBL2434929, “Thermoresponsive dendrimers based on oligoethylene glycols: design, synthesis and cytotoxic activity against MCF-7 breast cancer cells” (Eur J Med Chem, 2013).
Values after ≈ are worked out from the molar mass of the structure shown.

How the values were obtained:
[1] = tested on: MCF7; experiment: Cytotoxicity against human MCF7 cells after 72 hrs by SRB-U assay; format: functional, cell-based; conditions: MCF7, 72 h
[2] = tested on: MCF7; experiment: Cytotoxicity against human MCF7 cells assessed as viable cells at 0.1 to 1000 ug/ml after 72 hrs by SRB-U assay; format: functional

SMILES | IC50 [1] | Activity [2]
CCOCCOCCOCCOc1cc(COCCOCCOCCOc2c(Br)c(Br)c(OCCOCCOCCOCc3cc(OCCOCCOCCOCC)c(OCCOCCOCCOCC)c(OCCOCCOCCOCC)c3)c(Br)c2Br)cc(OCCOCCOCCOCC)c1OCCOCCOCCOCC | 25.4 µg/mL (≈ 13.2 µM) | 5.1%
CCOCCOCCOCCOc1cc(COc2c(Br)c(Br)c(OCc3cc(OCCOCCOCCOCC)c(OCCOCCOCCOCC)c(OCCOCCOCCOCC)c3)c(Br)c2Br)cc(OCCOCCOCCOCC)c1OCCOCCOCCOCC | 1.07 µg/mL (≈ 0.643 µM) | 1.97%
CCOCCOCCOCCOc1c(Br)c(Br)c(OCCOCCOCCOCC)c(Br)c1Br | 13.8 µg/mL (≈ 18.5 µM) | 11.22%
